This passage reports IC50 results from patent US20240083897A1, “GCN2 MODULATING COMPOUNDS AND USES THEREOF” (HiberCell, Inc., priority 2021, published 2024).

SMILES strings stand for the structures. A value given as a limit tells only on which side of the number the result lay.

GCN2, sequence (Q9P2K8 whole entry): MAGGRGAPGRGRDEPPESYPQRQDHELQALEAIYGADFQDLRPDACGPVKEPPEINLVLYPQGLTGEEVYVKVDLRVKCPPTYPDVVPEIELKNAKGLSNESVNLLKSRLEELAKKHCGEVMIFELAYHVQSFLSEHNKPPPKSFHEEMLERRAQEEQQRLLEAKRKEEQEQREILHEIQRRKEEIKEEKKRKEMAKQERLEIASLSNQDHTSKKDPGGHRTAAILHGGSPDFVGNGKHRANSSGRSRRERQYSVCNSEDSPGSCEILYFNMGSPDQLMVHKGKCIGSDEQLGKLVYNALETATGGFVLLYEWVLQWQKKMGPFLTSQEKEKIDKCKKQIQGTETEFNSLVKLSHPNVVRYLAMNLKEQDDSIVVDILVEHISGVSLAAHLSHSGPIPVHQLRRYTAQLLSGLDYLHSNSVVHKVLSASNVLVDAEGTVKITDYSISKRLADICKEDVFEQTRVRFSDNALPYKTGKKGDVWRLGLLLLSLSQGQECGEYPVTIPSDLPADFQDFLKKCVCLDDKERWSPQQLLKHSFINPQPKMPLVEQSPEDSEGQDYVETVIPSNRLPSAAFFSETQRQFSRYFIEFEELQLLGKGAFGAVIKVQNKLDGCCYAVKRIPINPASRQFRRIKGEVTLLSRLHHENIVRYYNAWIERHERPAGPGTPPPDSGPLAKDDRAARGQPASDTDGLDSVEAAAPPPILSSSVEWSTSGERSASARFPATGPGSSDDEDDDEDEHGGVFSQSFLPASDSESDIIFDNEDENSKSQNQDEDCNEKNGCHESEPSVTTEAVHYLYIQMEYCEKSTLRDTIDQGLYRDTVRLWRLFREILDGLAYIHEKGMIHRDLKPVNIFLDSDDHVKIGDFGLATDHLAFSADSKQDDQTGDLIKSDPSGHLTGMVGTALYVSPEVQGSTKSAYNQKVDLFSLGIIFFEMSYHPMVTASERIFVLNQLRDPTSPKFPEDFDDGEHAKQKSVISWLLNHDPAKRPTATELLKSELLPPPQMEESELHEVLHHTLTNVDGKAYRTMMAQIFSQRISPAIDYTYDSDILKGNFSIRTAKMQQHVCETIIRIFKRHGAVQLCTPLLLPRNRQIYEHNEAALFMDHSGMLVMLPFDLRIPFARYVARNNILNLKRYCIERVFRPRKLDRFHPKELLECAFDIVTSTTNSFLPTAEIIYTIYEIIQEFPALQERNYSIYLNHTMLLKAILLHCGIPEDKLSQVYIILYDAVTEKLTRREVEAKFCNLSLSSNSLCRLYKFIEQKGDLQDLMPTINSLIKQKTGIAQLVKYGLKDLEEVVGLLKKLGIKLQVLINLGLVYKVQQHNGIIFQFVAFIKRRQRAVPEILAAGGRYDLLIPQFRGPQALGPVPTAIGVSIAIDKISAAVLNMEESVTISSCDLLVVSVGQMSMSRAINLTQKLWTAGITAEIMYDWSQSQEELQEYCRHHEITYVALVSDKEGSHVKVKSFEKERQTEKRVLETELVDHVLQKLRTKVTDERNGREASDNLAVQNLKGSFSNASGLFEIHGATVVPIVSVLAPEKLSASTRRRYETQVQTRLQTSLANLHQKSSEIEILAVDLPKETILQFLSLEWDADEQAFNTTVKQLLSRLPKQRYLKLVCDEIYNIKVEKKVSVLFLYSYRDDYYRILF

This assay addresses GCN2 (Homo sapiens (Human), UniProt Q9P2K8). The assay is described as follows: TR-FRET biochemical assay for inhibition of GCN2. Conditions: GCN2 2 nM, 100 nM GFP-eIF2a, 150 μM ATP, TR-FRET. In general terms: In TR-FRET formats the signal depends on donor and acceptor labels being close together.
Broadly, the IC50 is the concentration needed to halve the response being measured. A higher IC50 goes with lower potency. The molecule `COc1ncc(Cl)cc1S(=O)(=O)Nc1ccc(F)c(-c2ccn3c(-c4ncc[nH]4)ncc3c2)c1F` [Compound 35, 5-chloro-N-[2,4-difluoro-3-[3-(1H-imidazol-2-yl)imidazo[1,5-a]pyridin-7-yl]phenyl]-2-methoxypyridine-3-sulfonamide] returned an IC50 of less than 50 nM.

Consider `COc1ncc(F)cc1S(=O)(=O)Nc1ccc(F)c(-c2ccn3c(-c4ncc[nH]4)ncc3c2)c1F` [Compound 36, N-[2,4-difluoro-3-[3-(1H-imidazol-2-yl)imidazo[1,5-a]pyridin-7-yl]phenyl]-5-fluoro-2-methoxypyridine-3-sulfonamide], for which the IC50 was less than 50 nM.

For `COc1ncc(Cl)cc1S(=O)(=O)Nc1ccc(F)c(-c2ccc3c(-c4ccn(C)n4)ncn3c2)c1F` [Compound 37, 5-chloro-N-[2,4-difluoro-3-[1-(1-methylpyrazol-3-yl)imidazo[1,5-a]pyridin-6-yl]phenyl]-2-methoxypyridine-3-sulfonamide], the 50% inhibitory concentration (IC50) is less than 50 nM.

`COc1ncc(Cl)cc1S(=O)(=O)Nc1ccc(F)c(-c2ccc3c(-c4ncc[nH]4)ncn3c2)c1C#N` [Compound 38, 5-chloro-N-[2-cyano-4-fluoro-3-[1-(1H-imidazol-2-yl)imidazo[1,5-a]pyridin-6-yl]phenyl]-2-methoxypyridine-3-sulfonamide] came in with a half-inhibitory concentration (IC50) of less than 50 nM.

Molecule `N#Cc1cc2c(c(S(=O)(=O)Nc3ccc(F)c(-c4ccc5c(-c6ncc[nH]6)ncn5c4)c3F)c1)CCC2O` (stereo not drawn) [Compound 39, 6-cyano-N-[2,4-difluoro-3-[1-(1H-imidazol-2-yl)imidazo[1,5-a]pyridin-6-yl]phenyl]-1-hydroxy-2,3-dihydro-1H-indene-4-sulfonamide] displayed an IC50 of less than 50 nM.

On to `COc1ncc(C#N)cc1S(=O)(=O)Nc1ccc(F)c(-c2ccn3c(-c4ncc[nH]4)ncc3c2)c1F` [Compound 40, 5-cyano-N-[2,4-difluoro-3-[3-(1H-imidazol-2-yl)imidazo[1,5-a]pyridin-7-yl]phenyl]-2-methoxypyridine-3-sulfonamide], for which the IC50 is less than 50 nM.

With `COc1ncc(Cl)cc1S(=O)(=O)Nc1ccc(F)c(-c2ccn3c(-c4ncc[nH]4)ncc3c2F)c1F` [Compound 41, 5-chloro-N-[2,4-difluoro-3-[8-fluoro-3-(1H-imidazol-2-yl)imidazo[1,5-a]pyridin-7-yl]phenyl]-2-methoxypyridine-3-sulfonamide], the IC50 was less than 50 nM.

`COc1ncc(C#N)cc1S(=O)(=O)Nc1ccc(F)c(-c2ccn3c(-c4ncc[nH]4)ncc3c2F)c1F` [Compound 42, 5-cyano-N-[2,4-difluoro-3-[8-fluoro-3-(1H-imidazol-2-yl)imidazo[1,5-a]pyridin-7-yl]phenyl]-2-methoxypyridine-3-sulfonamide] gave an IC50 of less than 50 nM.

Take `COc1ncc(Cl)cc1S(=O)(=O)Nc1ccc(F)c(-c2ccc3c(-c4nc(C#N)c[nH]4)ncn3c2)c1F` [Compound 43, N-[3-[1-(4-cyano-1H-imidazol-2-yl)imidazo[1,5-a]pyridin-6-yl]-2,4-difluorophenyl]-5-chloro-2-methoxypyridine-3-sulfonamide]: the half-maximal inhibitory concentration (IC50) was less than 50 nM.

As for `Cc1ncc(F)cc1S(=O)(=O)Nc1ccc(F)c(-c2ccc3c(-c4nc(C#N)c[nH]4)ncn3c2)c1F` [Compound 44, N-[3-[1-(4-cyano-1H-imidazol-2-yl)imidazo[1,5-a]pyridin-6-yl]-2,4-difluorophenyl]-5-fluoro-2-methylpyridine-3-sulfonamide], the IC50 was less than 50 nM.

Molecule `COc1ncc(F)cc1S(=O)(=O)Nc1ccc(F)c(-c2ccc3c(-c4nc(Cl)c[nH]4)ncn3c2)c1F` [Compound 45, N-[3-[1-(4-chloro-1H-imidazol-2-yl)imidazo[1,5-a]pyridin-6-yl]-2,4-difluorophenyl]-5-fluoro-2-methoxypyridine-3-sulfonamide] returned an IC50 of less than 50 nM.

Consider `COc1ncc(F)cc1S(=O)(=O)Nc1ccc(F)c(-c2ccc3c(-c4ccn(C)n4)ncn3c2)c1F` [Compound 46, N-[2,4-difluoro-3-[1-(1-methylpyrazol-3-yl)imidazo[1,5-a]pyridin-6-yl]phenyl]-5-fluoro-2-methoxypyridine-3-sulfonamide], for which the IC50 was less than 50 nM.
